Tests used:
[1] = early investigations of the crystals (hygroscopicity, stability, formulation properties); format: physicochemical; conditions: crystals having the XRD pattern of Table 1
cGMP PDE5 = cGMP PDE5 (Homo sapiens, UniProt O76074); conditions: statement in words, as detailed in WO 01/27113; cited from earlier work

formulation properties [1]: good formulation properties | hygroscopicity [1]: non-hygroscopic | stability [1]: stable
SMILES: CCOc1ncc(S(=O)(=O)N2CCN(CC)CC2)cc1-c1nc2c(CC)n(CCOC)nc2c(=O)[nH]1 [Example 1, 1-{6-ethoxy-5-[3-ethyl-6,7-dihydro-2-(2-methoxyethyl)-7-oxo-2H-pyrazolo[4,3-d]pyrimidin-5-yl]-3-pyridylsulfonyl}-4-ethylpiperazine]
cGMP PDE5 inhibitor potency and selectivity (cGMP PDE5): potent and selective
